Measurements taken from US5795885A, “Method of inhibiting profileration of cells by administering an aminosterol compound” (priority 1995, dated 1998).
Converted amounts (≈) assume the structure as drawn. Read-outs that look alike come from different tables or passages of the source.

Experiments:
S. aureus = assay: antibiotic activity (MIC); format: cell-based; conditions: Staphylococcus aureus
P. aerug = assay: antibiotic activity (MIC); format: cell-based
E. Coli = assay: antibiotic activity (MIC); format: cell-based; conditions: Escherichia coli, read-out: MIC, E. Coli
[1] = system: stage 59-60 Xenopus tadpoles; conditions: for pharmacological response in tadpole: 10 μg/ml in water
[2] = system: PHA-stimulated human lymphocytes; assay: inhibition of mitogen (PHA)-stimulated growth of human T-cells; format: cell-based; conditions: Homo sapiens, Lymphocyte, read-out: inhibition of PHA-stimulated human lymphocytes (% control); for inhibition at 1 µg/mL: 1 μg/ml; for inhibition at 5 µg/mL: 5 μg/ml; for inhibition at 10 µg/mL: 10 μg/ml
Text: Results are tabulated below.

[3] = system: chick embryo vitelline capillaries; assay: chick embryo vitelline capillary regression assay; format: in vivo; design: key to vitelline capillary regression: +: Vascular reactivity; 0: No vascular reactivity; +/-: Equivocal reactivity; conditions: for vitelline capillary regression: 60 minutes
Protocol: Using the chick embryo vitelline capillaries assay, compounds were tested for their ability to induce capillary regression. Each compound was applied in 0.1 ml of 15% Ficol 400 and PBS onto the embryo, and vascular regression was assessed after 60 minutes.
The 3-day chick embryo consists of an embryonic disc from which numerous vessels emerge and return, forming a "figure 8"-shaped structure--the embryo in the center with vascular loops extending outward over both poles. […] Following a lag period of around 15 minutes, the constriction of continuity between capillary and secondary vessels, generally on the "venous" side, was observed. Continued pulsatile blood flow progressed, resulting in a "swelling" of the blind tube, followed by a pinching off of the remaining connection and formation of an enclosed vascular sac resembling a "blood island." This process progressed until only the largest vessels remained intact.

[4] = format: physicochemical
Text: Compound 1361 was isolated from shark liver preparations in two different ways: first, as a degradation product of compound 1360; and, subsequently,as a minor aminosterol component fractionating with slightly faster retention time than squalamine during preparative C18 RP-HPLC (component of Fraction VI). In early attempts to purify each aminosterol to homogeneity, pooled fractions from C18 RP-HPLC were subjected to silica gel flash chromatography with CH2 Cl2 :CH30 H:NH4 OH 6:3:1, and the aminosterols were assayed on TLC plates. The pools of free base steroids were then re-subjected to C18 RP-HPLC, using an analytical column.

[5] = growth and weight gain in growing mice; format: in vivo, C57B mice
Protocol: Animals were dosed QTD (i.p.) starting on Day 1. […] Animals receiving 5 mg/kg QTD experienced about a 50% reduction in growth, compared to untreated controls, while animals receiving 1 mg/kg QTD were affected by about 10%. […] They appeared very much like hypophysectamized animals might appear.

fasting blood glucose = fasting blood glucose in mice; format: in vivo, Male CD-1 mice; conditions: intravenous
Protocol: To study the effect of steroid administrator or the NHE responsible for secretion of insulin, several of the aminosterols from shark liver were administered to fasting mice. Male CD-1 mice were assigned to one of four treatment groups. Whole blood glucose was tested using glucometer (Lifescan Glucometer II and One Touch test strips). Statistical analysis was via one-way analysis of variance (ANOVA) followed by subsequent Bonferonni's t-test.

[6] = system: human coronary artery smooth muscle; assay: proliferation of human coronary artery smooth muscle in vitro; format: cell-based
Text: Aminosterols of the invention may also have utility in inhibiting the growth factor mediated proliferation of smooth muscle within the artery. Following coronary angioplasty, reocclusion commonly occurs, secondary to reparative proliferation of the vascular smooth muscle within the wall of the surgically manipulated blood vessel. This process generally takes place over the course of 7-10 days. To evaluate whether an agent could prevent the growth factor mediated proliferation of smooth muscle within the artery, compound 1436 was evaluated in vitro for its effect on the proliferation of human coronary artery smooth muscle. Results for compound 1436 are shown in FIG. 13, and those for squalamine are shown in FIG. 14, with FIG. 15 being a composite logarithmic plot.

[7] = system: Human ovarian carcinoma SKOV3; assay: growth inhibition in vitro (Baker et al.); format: cell-based; conditions: 10 μg/ml
Protocol: (§1) As set forth in Table 7 below, all malignant tumors evaluated in tissue culture, endothelial cells and vascular smooth muscle cells were sensitive to inhibition. Thus, compound 1436 has application in the control of growth factor dependent proliferation of many types of tissue.
Using the assay described above, the anticancer effects of compound 1437 against several cancer lines was assessed.

arterial pressure = arterial pressure in the rat after i.v. administration; format: in vivo
Protocol: A 200-g rat was catheterized in the right carotid artery, and the compound was introduced over a ten-second period to a total dosage of 5 mg/kg. Within 30 seconds, the mean arterial pressure had fallen from about 100 mm Hg to about 70 mm Hg, with a marked reduction in pulse pressure from about 40 mm to about 10 mm. […] If cardiac output was basically unaffected, reduction in blood pressure would have resulted principally from a reduction in system resistance.
At that time, 40 μg of noradrenaline was introduced.

Lewis lung carcinoma = assay: growth inhibition / cytotoxicity in vitro; format: cell-based; conditions: 10 μg/ml
Text: as §1

rabbit NHE3 = rabbit NHE3 (Oryctolagus cuniculus, UniProt P26432); conditions: 10 μg/ml; acid preloaded by 40 mM NH4Cl
rabbit NHE3, sequence (P26432 30-832): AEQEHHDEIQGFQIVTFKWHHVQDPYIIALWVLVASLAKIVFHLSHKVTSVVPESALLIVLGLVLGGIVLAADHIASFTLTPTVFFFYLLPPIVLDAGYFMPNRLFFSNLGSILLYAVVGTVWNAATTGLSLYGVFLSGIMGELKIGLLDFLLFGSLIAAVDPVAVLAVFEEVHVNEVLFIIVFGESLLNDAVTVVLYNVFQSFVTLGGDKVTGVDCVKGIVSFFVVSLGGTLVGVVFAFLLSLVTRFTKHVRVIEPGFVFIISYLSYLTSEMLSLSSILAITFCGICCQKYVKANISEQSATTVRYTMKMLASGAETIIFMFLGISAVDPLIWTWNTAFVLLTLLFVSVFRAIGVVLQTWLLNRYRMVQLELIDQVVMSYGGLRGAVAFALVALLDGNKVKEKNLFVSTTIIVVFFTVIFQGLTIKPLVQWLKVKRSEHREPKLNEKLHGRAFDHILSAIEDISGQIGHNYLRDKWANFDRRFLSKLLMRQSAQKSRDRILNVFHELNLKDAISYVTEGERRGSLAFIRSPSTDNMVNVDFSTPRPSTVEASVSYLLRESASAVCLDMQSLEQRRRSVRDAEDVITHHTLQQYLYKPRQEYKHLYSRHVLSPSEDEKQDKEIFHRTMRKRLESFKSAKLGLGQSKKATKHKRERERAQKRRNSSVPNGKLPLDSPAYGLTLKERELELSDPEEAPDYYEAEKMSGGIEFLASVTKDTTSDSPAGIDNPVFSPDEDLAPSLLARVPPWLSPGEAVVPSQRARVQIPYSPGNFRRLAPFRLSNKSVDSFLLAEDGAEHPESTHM
Protocol: Internal pH was measured either following acid loading or in the absence of an acid-loading challenge, with the results shown in FIGS. 1A and 1B.
Specifically, PS120 fibroblasts transfected with rabbit NHE3 were grown in supplemented Dulbecco's-modified Eagle's medium as described by Levine et al., J. Biol. Chem. 268, 1993, 25527-25535. […] For cells not acid-preloaded, the actual internal pH value was monitored as a function of time following addition of squalamine, with the results depicted in FIG. 1B.
PS120 fibroblasts transfected with rabbit NHE3 were grown and acid preloaded by exposure to 40 mM NH4 Cl as described above in conjunction with FIGS. 1A and 1B. Internal cellular pH changes expressed as the rate of pH recovery as a function of restored extracellular sodium ion concentration following exposure to 10 μg/ml of the compound were assayed with the fluorescent dye BCECF-AM as described above.

[8] = system: Human microvascular endothelial cells; assay: growth inhibition in vitro (Baker et al.); format: cell-based; conditions: 10 μg/ml
Text: as §1

[9] = system: Human colon carcinoma SW948; assay: growth inhibition in vitro (Baker et al.); format: cell-based; conditions: 10 μg/ml
Text: as §1

[10] = system: bovine pulmonary endothelial cells; assay: growth inhibition in vitro (Baker et al.); format: cell-based; conditions: 10 μg/ml
Text: as §1

[11] = system: human umbilical venous endothelial cells; assay: growth inhibition in vitro (Baker et al.); format: cell-based; conditions: 10 μg/ml
Text: as §1

[12] = system: Human colon carcinoma HT29; assay: growth inhibition in vitro (Baker et al.); format: cell-based; conditions: 10 μg/ml
Text: as §1

Murine L1210 leukemia = assay: growth inhibition in vitro (Baker et al.); format: cell-based; conditions: 10 μg/ml
Text: as §1

Human melanoma WM 1617 = assay: growth inhibition in vitro (Baker et al.); format: cell-based; conditions: 10 μg/ml
Text: as §1

[13] = system: Human coronary artery smooth muscle cells; assay: growth inhibition in vitro (Baker et al.); format: cell-based; conditions: 10 μg/ml
Text: as §1

Murine B16 melanoma = assay: growth inhibition in vitro; format: cell-based; conditions: 10 μg/ml
Text: as §1

[14] = system: L1210 lymphoblastic leukemia; assay: mouse model of L1210 leukemia; format: in vivo, C57B mice
B16 melanoma = B16 melanoma growth in C57B mice; format: in vivo, mouse
Protocol: The growth of B16 melanoma in C57B mice is dependent upon neovascularization.
Using the growth of B16 melanoma cells in C57B mice, a recognized model for the evaluation of inhibitors of angiogenesis on the growth of cancers, the effects of subcutaneous, intraperitoneal and oral administration of squalamine were evaluated.
Based on the idea that tumor growth involves both the clonal expansion of a malignant cell along with the development of a supporting vascular supply, a combination of compound 1436 with squalamine was tested to determine whether it would achieve a synergistic effect on solid tumor growth. This concept was evaluated in the B16 melanoma model.
Animals were implanted with B16 melanoma followed by treatment with compound 1436 or 1256 administered in a combined schedule or separately. […] Thus, a combination of these two compounds achieves a therapeutic benefit in tumors dependent on neovascularization that may prevent metastatic spread.

[15] = system: heart of a juvenile Xenopus laevis frog; assay: ex vivo beating of isolated frog heart; conditions: 10 μg/ml; Krebs-Ringer with adrenaline 50 μg/ml; about one hour without compound
Protocol: To determine if compound 1436 has such utility, the following experiment was performed. The heart of a juvenile Xenopus laevis frog was dissected from the living animal. The heart was placed into a Petri dish containing Krebs-Ringer buffer with adrenaline 50 μg/ml, and examined with the naked eye. At room temperature, the heart continued beating in a coordinated fashion (atrial beat followed by ventricular beat) for about one hour. In the presence of 10 μg/ml of compound 1436, spontaneous beating persisted up to 24 hours.

HM = HM MTT assay; format: cell-based; conditions: Table II; read-out: Minimum Effective Concentration, HM MTT assay

SMILES: CC(C)CCC[C@@H](C)[C@H]1CC[C@H]2[C@@H]3CC[C@H]4C[C@H](NCCCN5CCCCN=C5N)CC[C@]4(C)[C@H]3CC[C@]12C
- MIC (S. aureus): 2 µg/mL (≈ 3.7 µM)

SMILES: COC(=O)CCC(C)[C@H]1CCC2C3C[C@@H](O)[C@H]4C[C@H](NCCN)CC[C@]4(C)C3CC[C@@]21C (some centres unmarked)
- MIC (P. aerug): 128 µg/mL (≈ 285 µM)
- MIC (E. Coli): 32 to 44 µg/mL (≈ 71.3 to 98.1 µM)

SMILES: CC(COS(=O)(=O)O)C(=O)CC[C@@H](C)[C@H]1CC[C@H]2[C@@H]3[C@H](O)C[C@H]4C[C@@H](NCCCNCCCCN)CC[C@]4(C)[C@H]3CC[C@]12C (single isomer, unassigned) [Compound 1360]
- pharmacological response in tadpole [1]: Swelling and lysis of certain erythrocytes occurred, resulting in accumulation of nuclei within certain small vessels of the tail. Subsequent tissue breakdown occurred in areas of tail surrounding these nuclear plugs.
- pharmacological response in tadpole ([1]; listed as compound 1360): extensive vasocclusion occurred within 60 minutes throughout the tail
- inhibition at 1 µg/mL [2]: 5%
- inhibition at 5 µg/mL [2]: 5%
- inhibition at 10 µg/mL [2]: 5%
- vitelline capillary regression ([3]; 1 μg applied): 0
- effect on blood color in chick embryo ([3]; within 20 minutes): the blood circulating through the embryonic vessels exhibited a brighter red color
- chemical stability [4]: undergoes a dehydration of the 27 hydroxyl, loss of sulfate, and generation of the corresponding 27-ene

SMILES: CC(C)[C@@H](CC[C@@H](C)[C@H]1CC[C@H]2[C@@H]3[C@H](O)C[C@H]4C[C@@H](NCCCNCCCCNCCCN)CC[C@]4(C)[C@H]3CC[C@]12C)OS(=O)(=O)O [Compound 1436]
- reduction in growth of mice ([5]; 1 mg/kg QTD i.p.): about 10%
- suppression of growth of mice ([5]; 10 mg/kg QTD i.p., about 1 month): growth was almost completely inhibited
- health of treated animals ([5]; mouse, in vivo): all were active, normally proportioned, not-cachectic, and in excellent apparent clinical health
- hyperglycemia (fasting blood glucose): caused hyperglycemia in mice
- suppression of growth (in words) ([6]; FIG. 15): suppress in vitro the growth of human coronary artery smooth muscle
- viability ([6]; about 11 μg/ml): without loss of viability
- cancer cells inhibited in vitro [7]: INHIBITED
- reversibility of effect (arterial pressure; 40 μg noradrenaline at 30 minutes): readily reversible
- duration of effect on arterial pressure (arterial pressure; 5 mg/kg i.v.): followed for 30 minutes, without significant change
- heart rate (arterial pressure; 5 mg/kg i.v.): no significant increase in heart rate was observed
- time to fall in arterial pressure (arterial pressure; 5 mg/kg i.v.): ≤ 30 s
- pulse pressure after dosing (arterial pressure; 5 mg/kg i.v., from about 40 mm): about 10 mm
- mean arterial pressure after dosing (arterial pressure; 5 mg/kg i.v., from about 100 mm Hg): about 70 mm Hg
- cancer cells inhibited in vitro (Lewis lung carcinoma): INHIBITED
- time to death of tadpole ([1]; in vivo): about 2 hours
- tadpole tail capillary occlusion ([1]; squalamine at 10 μg/ml): common vascular occlusive effect
- inhibition of rabbit NHE3 (rabbit NHE3): found to inhibit rabbit NHE3
- inhibition at 1 µg/mL [2]: 20%
- inhibition at 5 µg/mL [2]: 50%
- inhibition at 10 µg/mL [2]: 80%
- non-transformed cells inhibited in vitro [8]: INHIBITED
- cancer cells inhibited in vitro [9]: INHIBITED
- non-transformed cells inhibited in vitro [10]: INHIBITED
- non-transformed cells inhibited in vitro [11]: INHIBITED
- cancer cells inhibited in vitro [12]: INHIBITED
- cancer cells inhibited in vitro (Murine L1210 leukemia): INHIBITED
- cancer cells inhibited in vitro (Human melanoma WM 1617): INHIBITED
- non-transformed cells inhibited in vitro [13]: INHIBITED
- cancer cells inhibited in vitro (Murine B16 melanoma): INHIBITED
- survival ([14]; highest dose (10 mg/kg every 3 days i.p.)): significant prolongation of life
- granulocyte count ([14]; mouse, in vivo): robust granulocyte count
- hematocrit ([14]; mouse, in vivo): near normal hematocrit
- vitelline capillary regression ([3]; 0.001 μg applied): +/-
- vitelline capillary regression ([3]; 0.01 μg applied): +
- vitelline capillary regression ([3]; 0.1 μg applied): +
- vitelline capillary regression ([3]; 1 μg applied): +
- vitelline capillary regression ([3]; 10 μg applied): +
- effect on chick embryo vitelline capillaries (in words) ([3]; in vivo): causes vitelline capillary regression with about the same potency as squalamine
- impact on tumor volume (B16 melanoma; compound 1436 alone 10 mg/kg/every 3 days): no significant impact on tumor volume
- tumor growth, single agent (B16 melanoma; squalamine 15 mg/kg/day, compound 1436 alone in a tolerable schedule): Neither administration of squalamine at 15 mg/kg/day nor compound 1436 alone in a tolerable schedule could achieve this effect
- persistence of spontaneous beating of isolated heart [15]: up to 24 hours

SMILES: COC(=O)CCC(C)[C@H]1CCC2C3CC[C@H]4C[C@H](NCCCNCCCCNCCCN)CC[C@]4(C)C3CC[C@@]21C (some centres unmarked) [drawing 108]
- minimal effective concentration (HM): 6.8 µg/mL
